Measured values: paper PMC4410942 (Chemistry & Biology, 2015)

How the values were obtained:
PanZ = target: T1, PanZ (Escherichia coli, UniProt P37613); assay: 1H-15N HSQC NMR; format: binding; conditions: 0.2 mM PanZ, 50 mM Tris-HCl pH 7.5, 0.1 M NaCl, 0.1 mM DTT, 25 °C
T1 construct: co-purifies with substoichiometric CoA derivatives; monomer
T1 sequence (P37613 1-127): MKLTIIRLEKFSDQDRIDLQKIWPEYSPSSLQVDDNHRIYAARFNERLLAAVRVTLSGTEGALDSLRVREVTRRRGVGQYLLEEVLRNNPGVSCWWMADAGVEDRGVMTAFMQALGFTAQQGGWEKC

[1] = target: T2, PanD-PanZ complex (PanD-PanZ.AcCoA) (Escherichia coli, UniProt P37613); assay: X-ray crystal structure; format: binding; conditions: site on PanZ near the PanD interface; crystals from PEG 3350, bis-Tris propane pH 7.4; one AcCoA per PanZ
T2 construct: heterooctamer (4 PanD + 4 PanZ), about 124 kDa; with Aspartate 1-decarboxylase

[2] = target: T2, PanD-PanZ complex (PanD-PanZ.AcCoA); assay: X-ray crystal structure; format: binding; conditions: site on PanZ near the PanD interface; crystals from PEG 3350, bis-Tris propane pH 7.4; one AcCoA per PanZ; remark: listed apart in the source
ADC (activated PanD) = ADC (activated PanD) (Escherichia coli, UniProt P0A790); conditions: without PanZ; 25 °C; 2.5 μM ADC; curves with and without PanZ.AcCoA fitted with a shared KM

| X-ray crystal structure [1] | X-ray crystal structure [2] | Compound | 1H-15N HSQC NMR (PanZ) | KM (ADC (activated PanD)) |
| --- | --- | --- | --- | --- |
| PDB ID 4CRZ (PanD(T57V)-PanZ.AcCoA) | 4CS0 (PanD(S25A)-PanZ.AcCoA) | CC(=O)SCCNC(=O)CCNC(=O)[C@H](O)C(C)(C)COP(=O)(O)OP(=O)(O)OC[C@H]1O[C@@H](n2cnc3c(N)ncnc32)[C@H](O)[C@@H]1OP(=O)(O)O [AcCoA] | Addition of excess AcCoA led to simplification of the spectrum (Figure 3D) | – |
| – | – | N[C@@H](CC(=O)O)C(=O)O [compound 5, L-aspartate] | – | Individual curves are fitted to the Michaelis-Menten curve with a shared value of KM |
